Measured values: ChEMBL document CHEMBL1201862, “PubChem BioAssay data set” (2004)
The source made the active and inactive calls.

Key:
[1] = MIN6 cell viability loss – mouse insulinoma, cytotoxicity control, dose response (AID 2122); format: functional;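 note: confirmatory high-throughput counterscreen run to flag cytotoxic compounds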
[2] = decrease of insulin promoter-GFP reporter – imaging, high-content screening, mouse beta cells (AID 1628); format: functional; conditions: MIN6
[3] = biological target: Voltage-dependent T-type calcium channel subunit alpha-1H (Homo sapiens, UniProt O95180); format: functional;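 note: channel activity triggered by adding a high calcium stimulation buffer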
[4] = viability of uninfected HEp-2 cells – cell-based, HTS, cytotoxicity control for RSV inhibitor project, dose response (AID 2410); format: functional; conditions: human respiratory syncytial virus
cells [5] = test: cells
Vero [6] = test: cells; format: functional, cell-based; conditions: Chlorocebus sabaeus
[7] = biological target: Eukaryotic translation initiation factor 4E (Mus musculus, UniProt P63073); test: blockers of eIF4G binding by eIF4E – biochemical, TR-FRET, dose response (AID 855); format: functional;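 note: potency for disrupting eIF4E binding to eIF4GI seen as loss of FRET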
[8] = biological target: T1, E3 ubiquitin-protein ligase XIAP (Homo sapiens, UniProt P98170); test: small molecules displacing peptide from XIAP – biochemical, IAP family, fluorescence polarization (AID 1018); format: functional
[9] = biological target: T1, E3 ubiquitin-protein ligase XIAP; test: Counter Screen using XIAP-Bir3 for Chemical Antagonists of Bir1/2 domains of IAP-family anti-apoptotic proteins. [Related pubchem assays (depositor defined):AID1018, AID1449, AID1514, AID1638, AID1749, AID1750, AID488957, AID488963]
H4 = test: Luminescence Cell-Based Dose Response HTS to Identify Activators of 5'UTR Stem-Loop Driven Prion Protein mRNA Translation in H4 Neuroglioblastoma Cells. [Related pubchem assays: 1829 (Project Summary), 1814 (Primary HTS)]; format: functional; conditions: Homo sapiens
[10] = Luminescence Cell-Based Dose Response HTS to Identify Activators of Luciferase Translation or Activity in H4 […] Cells. [Related pubchem assays: 1829 (Project Summary), 1814 (Primary HTS)]; format: functional
[11] = Luminescence Cell-Based Dose Confirmation HTS to Identify Activators of 5'UTR Stem-Loop Driven Alpha-Synuclein mRNA Translation in H4 Neuroglioblastoma Cells. [Related pubchem assays: 1829 (Project Summary), 1814 (Primary HTS)]; format: functional
[12] = biological target: T2, Short transient receptor potential channel 4 (Mus musculus, UniProt Q9QUQ5); test: calcium entry via TRPC4 opening agents – cell-based, HEK293 TRPC4/mu-opioid, Fluo-4 calcium, dose response (AID 434937); format: functional
T2 sequence (Q9QUQ5 whole entry): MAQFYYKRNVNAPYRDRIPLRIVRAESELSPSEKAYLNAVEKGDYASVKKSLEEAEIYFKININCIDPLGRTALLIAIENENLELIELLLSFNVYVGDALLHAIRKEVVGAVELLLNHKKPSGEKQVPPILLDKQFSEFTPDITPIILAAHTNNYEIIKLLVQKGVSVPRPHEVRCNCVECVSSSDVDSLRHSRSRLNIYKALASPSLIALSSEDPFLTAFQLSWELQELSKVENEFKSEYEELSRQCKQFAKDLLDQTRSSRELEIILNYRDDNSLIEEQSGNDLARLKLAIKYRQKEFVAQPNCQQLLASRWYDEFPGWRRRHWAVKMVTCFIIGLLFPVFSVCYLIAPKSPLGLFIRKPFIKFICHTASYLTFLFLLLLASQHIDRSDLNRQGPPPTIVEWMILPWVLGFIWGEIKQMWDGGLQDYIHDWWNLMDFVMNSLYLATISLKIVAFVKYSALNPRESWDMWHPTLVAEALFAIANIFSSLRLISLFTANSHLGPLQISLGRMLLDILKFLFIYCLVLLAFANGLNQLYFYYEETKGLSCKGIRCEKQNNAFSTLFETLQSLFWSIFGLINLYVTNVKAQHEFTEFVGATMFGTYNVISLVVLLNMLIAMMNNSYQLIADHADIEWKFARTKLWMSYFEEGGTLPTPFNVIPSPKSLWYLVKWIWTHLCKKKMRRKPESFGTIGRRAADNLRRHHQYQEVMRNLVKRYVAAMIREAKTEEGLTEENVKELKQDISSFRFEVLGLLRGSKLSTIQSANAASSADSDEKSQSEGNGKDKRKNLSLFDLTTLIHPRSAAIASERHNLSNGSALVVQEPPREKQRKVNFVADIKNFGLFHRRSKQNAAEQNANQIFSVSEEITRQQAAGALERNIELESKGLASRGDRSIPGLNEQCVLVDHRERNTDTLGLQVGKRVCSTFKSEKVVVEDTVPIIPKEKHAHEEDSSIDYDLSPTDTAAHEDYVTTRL

[13] = HepG2 cell cytotoxicity, dose response, cytotoxicity control for non-replicating M. tuberculosis project (AID 489018); format: functional; conditions: Mycobacterium tuberculosis
Vero [14] = test: cells; format: functional; conditions: Chlorocebus sabaeus
[15] = THP-1 cell cytotoxicity, dose response, cytotoxicity control for non-replicating M. tuberculosis project (AID 489025); format: functional
[16] = Vero E6 cell cytotoxicity, dose response, cytotoxicity control for non-replicating M. tuberculosis project, secondary assay (AID 492998); format: functional, VeroE6; conditions: Vero C1008
cells [17] = format: functional
[18] = microbe, parasite or virus in culture; format: functional; conditions: Mycobacterium tuberculosis

Chain of Voltage-dependent T-type calcium channel subunit alpha-1H (O95180 whole entry): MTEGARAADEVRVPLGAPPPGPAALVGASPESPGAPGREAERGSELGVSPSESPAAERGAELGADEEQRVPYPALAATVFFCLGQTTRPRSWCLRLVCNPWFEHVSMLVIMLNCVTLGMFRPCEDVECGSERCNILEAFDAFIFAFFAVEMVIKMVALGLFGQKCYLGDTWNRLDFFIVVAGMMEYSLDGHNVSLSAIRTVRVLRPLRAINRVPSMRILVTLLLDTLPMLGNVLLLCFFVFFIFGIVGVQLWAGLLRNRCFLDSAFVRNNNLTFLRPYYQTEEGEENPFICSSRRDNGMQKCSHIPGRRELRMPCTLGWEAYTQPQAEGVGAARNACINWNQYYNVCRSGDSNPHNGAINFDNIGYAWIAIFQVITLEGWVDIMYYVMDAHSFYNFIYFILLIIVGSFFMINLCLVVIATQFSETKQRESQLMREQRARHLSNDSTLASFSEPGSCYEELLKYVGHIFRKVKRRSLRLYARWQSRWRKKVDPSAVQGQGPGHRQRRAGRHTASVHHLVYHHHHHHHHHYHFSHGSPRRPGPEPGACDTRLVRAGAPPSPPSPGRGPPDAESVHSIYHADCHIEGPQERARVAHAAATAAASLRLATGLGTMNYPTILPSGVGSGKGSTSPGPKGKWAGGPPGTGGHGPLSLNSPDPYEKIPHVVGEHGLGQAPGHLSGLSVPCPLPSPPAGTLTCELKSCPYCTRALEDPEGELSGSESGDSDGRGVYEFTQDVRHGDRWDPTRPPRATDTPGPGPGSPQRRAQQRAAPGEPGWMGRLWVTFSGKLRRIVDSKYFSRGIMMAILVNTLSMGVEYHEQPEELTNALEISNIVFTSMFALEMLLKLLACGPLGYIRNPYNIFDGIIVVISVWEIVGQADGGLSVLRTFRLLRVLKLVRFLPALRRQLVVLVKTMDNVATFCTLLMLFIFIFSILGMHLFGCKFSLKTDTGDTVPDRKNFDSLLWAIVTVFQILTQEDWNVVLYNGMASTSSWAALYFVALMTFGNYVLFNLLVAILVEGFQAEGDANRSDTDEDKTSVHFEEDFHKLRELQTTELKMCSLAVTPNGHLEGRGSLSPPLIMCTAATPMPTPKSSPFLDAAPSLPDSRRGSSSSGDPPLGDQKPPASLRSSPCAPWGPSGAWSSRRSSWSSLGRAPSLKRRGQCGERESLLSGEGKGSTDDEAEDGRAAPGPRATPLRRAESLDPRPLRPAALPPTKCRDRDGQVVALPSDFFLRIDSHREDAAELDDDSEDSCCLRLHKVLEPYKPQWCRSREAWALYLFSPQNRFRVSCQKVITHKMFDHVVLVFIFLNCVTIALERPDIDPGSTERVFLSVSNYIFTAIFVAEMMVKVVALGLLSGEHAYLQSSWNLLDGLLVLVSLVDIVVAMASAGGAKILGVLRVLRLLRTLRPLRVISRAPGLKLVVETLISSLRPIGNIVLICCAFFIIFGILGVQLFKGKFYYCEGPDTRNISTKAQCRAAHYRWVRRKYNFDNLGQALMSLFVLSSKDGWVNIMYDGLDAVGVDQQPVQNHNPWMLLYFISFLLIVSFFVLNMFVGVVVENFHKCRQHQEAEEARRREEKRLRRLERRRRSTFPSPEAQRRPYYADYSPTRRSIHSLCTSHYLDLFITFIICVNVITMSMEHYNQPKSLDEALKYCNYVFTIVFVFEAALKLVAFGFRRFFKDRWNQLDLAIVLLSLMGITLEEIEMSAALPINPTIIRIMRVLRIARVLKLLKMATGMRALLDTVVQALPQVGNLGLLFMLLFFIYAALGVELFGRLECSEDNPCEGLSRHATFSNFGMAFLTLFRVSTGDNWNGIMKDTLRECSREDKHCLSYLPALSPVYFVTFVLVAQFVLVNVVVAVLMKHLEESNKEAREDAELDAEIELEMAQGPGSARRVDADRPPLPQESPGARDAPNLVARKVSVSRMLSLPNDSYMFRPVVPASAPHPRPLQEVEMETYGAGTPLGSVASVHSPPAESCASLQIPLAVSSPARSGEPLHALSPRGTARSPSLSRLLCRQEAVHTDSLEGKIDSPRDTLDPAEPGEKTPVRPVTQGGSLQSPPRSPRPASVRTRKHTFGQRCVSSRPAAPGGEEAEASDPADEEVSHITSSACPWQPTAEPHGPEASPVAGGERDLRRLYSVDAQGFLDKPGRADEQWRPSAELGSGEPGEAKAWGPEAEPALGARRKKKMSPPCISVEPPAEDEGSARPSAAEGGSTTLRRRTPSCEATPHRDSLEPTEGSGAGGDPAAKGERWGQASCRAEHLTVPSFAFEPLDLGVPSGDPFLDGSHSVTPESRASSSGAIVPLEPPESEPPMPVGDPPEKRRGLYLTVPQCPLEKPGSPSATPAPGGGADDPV
T1 sequence (P98170 whole entry): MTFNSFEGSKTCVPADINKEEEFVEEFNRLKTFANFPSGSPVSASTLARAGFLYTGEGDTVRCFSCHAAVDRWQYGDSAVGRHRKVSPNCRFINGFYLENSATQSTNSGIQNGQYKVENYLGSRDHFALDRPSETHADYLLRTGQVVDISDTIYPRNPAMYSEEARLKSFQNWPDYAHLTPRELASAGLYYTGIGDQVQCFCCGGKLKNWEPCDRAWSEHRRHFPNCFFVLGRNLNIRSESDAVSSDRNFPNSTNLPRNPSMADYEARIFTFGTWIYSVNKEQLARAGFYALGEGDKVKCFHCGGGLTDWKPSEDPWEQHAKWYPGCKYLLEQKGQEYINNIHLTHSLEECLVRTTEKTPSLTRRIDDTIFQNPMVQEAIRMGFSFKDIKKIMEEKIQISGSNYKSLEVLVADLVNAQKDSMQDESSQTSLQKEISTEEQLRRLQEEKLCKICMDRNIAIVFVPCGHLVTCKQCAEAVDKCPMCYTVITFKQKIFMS
Chain of Eukaryotic translation initiation factor 4E (P63073 whole entry): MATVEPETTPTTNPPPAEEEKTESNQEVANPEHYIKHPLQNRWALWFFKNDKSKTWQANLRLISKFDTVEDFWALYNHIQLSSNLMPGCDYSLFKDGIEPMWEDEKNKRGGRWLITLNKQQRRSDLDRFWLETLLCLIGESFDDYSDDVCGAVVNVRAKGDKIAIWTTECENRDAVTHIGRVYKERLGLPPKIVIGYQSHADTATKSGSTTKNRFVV

## COc1ccc2[nH]c3c(N4CCN(Cc5ccc6c(c5)OCO6)CC4)ncnc3c2c1
[1]
  IC50: 2.58 µM (active)
[2]
  IC50: 2.79 µM (active)

## Cc1nn(Cc2ccc(Cl)c(Cl)c2)c(C)c1NC(=O)c1cc(-c2ccco2)on1
[3]
  EC50: 1.35 µM (active)

## CC1Cc2ccccc2N1C(=O)c1cc2sccc2n1Cc1ccc(F)cc1 (configuration not stated)
[3]
  EC50: 5.86 µM (active)

## O=S(=O)(c1cccc(-c2csc(-c3ccccc3)n2)c1)N1CCOCC1
[4]
  CC50: 37.8 µM (active)
Cells [5]
  IC50: 28.4 µM (active)

## Cc1ccc(Nc2nc(=O)c3cccnc3s2)c(Br)c1
[4]
  CC50: 22.8 µM (active)
Vero [6]
  IC50: > 25 µM (active)
Cells [5]
  IC50: 25 µM (active)

## Cc1ccc(Nc2nc3ccccc3nc2-n2nc(C)cc2C)cc1
[7]
  IC50: > 64 µM (inactive)

## O=C(NCc1cccs1)c1noc2c1CCCCC2
[8]
  IC50: > 100 µM (not active)
[9]
  IC50: > 100 µM (inactive)

## Clc1ccc2sc(C3CCNCC3)nc2c1
H4
  EC50: 0.168 µM (active)
[10]
  EC50: 42.4 µM (active)
[11]
  EC50: 0.141 µM (active)
[12]
  EC50: 0.008 µM (active)

## Cc1cccc(/C=C/c2onc(C)c2[N+](=O)[O-])n1
[13]
  CC50: > 20 µM (active)
Vero [14]
  CC50: 13.8 µM (active)
[15]
  CC50: 7.76 µM (active)
[16]
  CC50: 6.87 µM (active)
Cells [17]
  IC50: 8.06 µM (active)
[18]
  CC50: 14.3 µM (active)
